Source: publication PMC10482975 (Nature Communications, 2023)
Where two headings read alike, the source gives them in different places.

Molecular target: T1, M4 mAChR (Homo sapiens, UniProt P08173)
T1 sequence (P08173 1-479): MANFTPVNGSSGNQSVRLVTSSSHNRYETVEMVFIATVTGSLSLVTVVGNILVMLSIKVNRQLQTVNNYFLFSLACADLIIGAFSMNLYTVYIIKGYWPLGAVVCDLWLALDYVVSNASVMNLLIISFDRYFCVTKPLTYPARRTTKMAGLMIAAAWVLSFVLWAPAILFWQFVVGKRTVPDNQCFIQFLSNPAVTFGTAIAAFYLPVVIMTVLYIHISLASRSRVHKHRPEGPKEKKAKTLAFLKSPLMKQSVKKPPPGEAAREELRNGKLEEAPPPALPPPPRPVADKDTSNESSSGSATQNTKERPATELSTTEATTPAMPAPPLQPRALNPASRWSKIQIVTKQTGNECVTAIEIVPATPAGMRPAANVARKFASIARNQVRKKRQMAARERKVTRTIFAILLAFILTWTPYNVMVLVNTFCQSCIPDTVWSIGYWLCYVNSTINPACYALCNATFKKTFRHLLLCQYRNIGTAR
Assay: biochemical
Details: read-out: [3H]-NMS binding remaining (0 min = 100), MEAN, M4 mAChR; for remaining activity at 0.1 µM: 0.1 μM Xano alone; for remaining activity at 1 µM: 1 μM Xano alone; for remaining activity at 10 µM: 10 μM Xano alone

With `CCCCCCOc1nsnc1C1=CCCN(C)C1` [xanomeline] the remaining activity at 0.1 µM (0.5 h, 30 min) was 90.3%, the remaining activity at 1 µM (0.5 h, 30 min) was 87.3% and the remaining activity at 100 µM (0.5 h, 10 μM Atropine + 100 μM Xanomeline, 30 min) was 85.1%. For the same molecule, the remaining activity at 10 µM (0.5 h, 30 min) was 77.6%, the remaining activity at 100 µM (0.5 h, 100 μM Xano alone, 30 min) was 85.7% and the remaining activity at 0.1 µM (1 h, 60 min) was 94.4%. It also gave a remaining activity at 1 µM (1 h, 60 min) of 76.8%, a remaining activity at 100 µM (1 h, 10 μM Atropine + 100 μM Xanomeline, 60 min) of 69.6% and a remaining activity at 10 µM (1 h, 60 min) of 61%. The remaining activity at 100 µM (1 h, 100 μM Xano alone, 60 min) was 73.5%, the remaining activity at 0.1 µM (1.5 h, 90 min) was 98.4% and the remaining activity at 1 µM (1.5 h, 90 min) was 74.4%. It also gave a remaining activity at 100 µM (1.5 h, 10 μM Atropine + 100 μM Xanomeline, 90 min) of 64.1%, a remaining activity at 10 µM (1.5 h, 90 min) of 50.9% and a remaining activity at 100 µM (1.5 h, 100 μM Xano alone, 90 min) of 62.6%. It also gave a remaining activity at 0.1 µM (2 h, 120 min) of 94.7%, a remaining activity at 1 µM (2 h, 120 min) of 64.9% and a remaining activity at 100 µM (2 h, 10 μM Atropine + 100 μM Xanomeline, 120 min) of 52.9%. The remaining activity at 100 µM (2 h, 100 μM Xano alone, 120 min) was 61.2%, the remaining activity at 0.1 µM (3 h, 180 min) was 92.1% and the remaining activity at 1 µM (3 h, 180 min) was 60.5%. For the same molecule, the remaining activity at 10 µM (3 h, 180 min) was 32.7%, the remaining activity at 100 µM (3 h, 100 μM Xano alone, 180 min) was 46.6% and the remaining activity at 0.1 µM (5 h, 300 min) was 89.8%. For the same molecule, the remaining activity at 1 µM (5 h, 300 min) was 57.5%, the remaining activity at 100 µM (5 h, 10 μM Atropine + 100 μM Xanomeline, 300 min) was 26.7% and the remaining activity at 10 µM (5 h, 300 min) was 17.9%. It also gave a remaining activity at 100 µM (5 h, 100 μM Xano alone, 300 min) of 34.6%.
